Reference: ChEMBL document CHEMBL5344409, “Discovery of pan-IAP degraders via a CRBN recruiting mechanism” (2023)
Calls of active or inactive are those of the source. The rule behind the calls is not given here.

Key:
[1] = biological target: Protein cereblon (Homo sapiens) (UniProt Q96SW2); assay: Induction of CRBN degradation in human MCF7 cells by western blot analysis; type: cell-based
MDA-MB-231 = assay: Inhibition of TNFalpha-induced cell invasion in human MDA-MB-231 cells at 0.1 uM measured after 24 hrs in presence of TNFalpha by transwell assay; type: functional, cell-based
[2] = biological target: T1, Protein cereblon/E3 ubiquitin-protein ligase XIAP (Homo sapiens) (UniProt P98170+Q96SW2); assay: PROTAC activity at CRBN/XIAP in human MCF7 cells assessed as induction of XIAP degradation at 0.1 uM measured after 18 hrs by western blot analysis; type: cell-based
T1 sequence (P98170 whole entry, looked up): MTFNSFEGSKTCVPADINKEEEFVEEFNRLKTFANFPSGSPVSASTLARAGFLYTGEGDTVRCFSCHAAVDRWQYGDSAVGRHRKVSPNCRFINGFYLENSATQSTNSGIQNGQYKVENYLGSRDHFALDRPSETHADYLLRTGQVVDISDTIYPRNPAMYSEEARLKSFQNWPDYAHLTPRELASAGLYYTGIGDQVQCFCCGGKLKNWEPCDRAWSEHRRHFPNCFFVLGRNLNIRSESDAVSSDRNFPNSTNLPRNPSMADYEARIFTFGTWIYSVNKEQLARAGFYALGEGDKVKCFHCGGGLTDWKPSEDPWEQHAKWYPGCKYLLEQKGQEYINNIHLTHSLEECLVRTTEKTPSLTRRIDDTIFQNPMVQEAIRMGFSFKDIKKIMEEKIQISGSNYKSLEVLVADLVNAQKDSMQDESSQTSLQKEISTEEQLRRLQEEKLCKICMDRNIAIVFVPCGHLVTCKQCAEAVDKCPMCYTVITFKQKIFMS
T1 sequence (Q96SW2 whole entry, looked up): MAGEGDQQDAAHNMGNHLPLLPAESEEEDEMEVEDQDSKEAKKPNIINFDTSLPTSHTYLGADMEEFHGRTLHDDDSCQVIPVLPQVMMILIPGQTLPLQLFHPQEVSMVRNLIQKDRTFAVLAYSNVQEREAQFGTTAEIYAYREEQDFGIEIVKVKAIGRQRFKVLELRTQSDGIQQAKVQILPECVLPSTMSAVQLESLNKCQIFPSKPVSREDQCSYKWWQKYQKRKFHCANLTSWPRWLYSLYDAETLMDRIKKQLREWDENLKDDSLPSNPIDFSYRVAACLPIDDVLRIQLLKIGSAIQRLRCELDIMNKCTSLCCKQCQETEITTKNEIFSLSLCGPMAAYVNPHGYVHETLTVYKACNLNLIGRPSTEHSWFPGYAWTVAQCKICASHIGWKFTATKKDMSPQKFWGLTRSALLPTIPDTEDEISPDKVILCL

[3] = biological target: T2, Protein cereblon/Baculoviral IAP repeat-containing protein 3 (Homo sapiens) (UniProt Q13489+Q96SW2); assay: Binding affinity to CRBN/cIAP2 in human HEK293T cells assessed as ternary complex formation at 1 uM measured after 6 hrs by immunoprecipitation analysis; type: cell-based
T2 sequence (Q13489 whole entry, looked up): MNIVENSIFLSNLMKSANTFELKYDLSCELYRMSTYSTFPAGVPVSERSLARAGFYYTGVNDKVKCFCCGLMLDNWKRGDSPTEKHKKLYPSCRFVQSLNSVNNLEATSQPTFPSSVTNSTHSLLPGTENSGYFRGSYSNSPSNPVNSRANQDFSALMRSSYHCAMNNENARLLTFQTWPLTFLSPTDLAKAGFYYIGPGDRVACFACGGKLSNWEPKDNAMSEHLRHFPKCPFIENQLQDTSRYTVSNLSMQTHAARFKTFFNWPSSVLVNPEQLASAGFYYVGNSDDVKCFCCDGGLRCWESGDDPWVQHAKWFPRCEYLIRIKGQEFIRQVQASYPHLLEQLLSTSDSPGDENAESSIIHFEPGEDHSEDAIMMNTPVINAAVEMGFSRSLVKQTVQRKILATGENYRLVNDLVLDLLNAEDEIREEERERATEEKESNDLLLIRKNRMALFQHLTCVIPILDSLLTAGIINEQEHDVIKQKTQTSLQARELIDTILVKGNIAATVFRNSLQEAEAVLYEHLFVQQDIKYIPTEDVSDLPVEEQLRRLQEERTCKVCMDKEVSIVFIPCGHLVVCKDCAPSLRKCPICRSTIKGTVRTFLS
T2 sequence (Q96SW2 whole entry, looked up): as the sequence (Q96SW2 whole entry, looked up) above

[4] = biological target: T2, Protein cereblon/Baculoviral IAP repeat-containing protein 3 (Homo sapiens); assay: PROTAC activity at CRBN/cIAP2 in human MCF7 cells assessed as induction of cIAP2 degradation at 1 uM measured after 18 hrs by western blot analysis; type: cell-based
MCF7 [5] = assay: Inhibition of TNFalpha-induced cytokine secretion in human MCF7 cells assessed as decrease in IL-6 level at 0.1 uM measured after 4 hrs by ELISA; type: functional, cell-based
[6] = biological target: Baculoviral IAP repeat-containing protein 2 (Homo sapiens) (UniProt Q13490); assay: Induction of cIAP1 degradation in human MCF7 cells at 0.1 to 10 uM measured after 18 hrs by western blot analysis; type: cell-based; conditions: dose 0.1-10 µM
Sequence of Baculoviral IAP repeat-containing protein 2 (Homo sapiens) (Q13490 whole entry): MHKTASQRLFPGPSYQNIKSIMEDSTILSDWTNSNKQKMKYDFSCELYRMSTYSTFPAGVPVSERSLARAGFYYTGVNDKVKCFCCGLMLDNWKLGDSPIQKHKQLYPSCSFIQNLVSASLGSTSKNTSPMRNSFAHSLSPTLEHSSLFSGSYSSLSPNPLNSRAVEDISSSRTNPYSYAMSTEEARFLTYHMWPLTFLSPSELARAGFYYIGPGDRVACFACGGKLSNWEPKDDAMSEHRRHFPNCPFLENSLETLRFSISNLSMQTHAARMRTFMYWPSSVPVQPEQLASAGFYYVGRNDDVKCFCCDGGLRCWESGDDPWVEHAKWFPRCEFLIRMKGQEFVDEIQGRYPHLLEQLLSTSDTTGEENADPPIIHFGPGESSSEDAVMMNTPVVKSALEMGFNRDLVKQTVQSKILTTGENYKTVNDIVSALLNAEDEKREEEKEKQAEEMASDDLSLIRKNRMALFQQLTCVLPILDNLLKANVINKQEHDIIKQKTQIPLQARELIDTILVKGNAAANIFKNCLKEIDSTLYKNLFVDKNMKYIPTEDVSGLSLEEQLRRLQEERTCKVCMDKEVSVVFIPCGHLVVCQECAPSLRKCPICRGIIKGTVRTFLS

[7] = biological target: Baculoviral IAP repeat-containing protein 2 (Homo sapiens) (UniProt Q13490); assay: Induction of cIAP1 degradation in human MCF7 cells at 1 uM measured after 6 hrs in presence of proteasome inhibitor, MG132 by western blot analysis; type: cell-based
MCF7 [8] = assay: Induction of apoptosis in human MCF7 cells assessed as increase in caspase 7 cleavage at 0.1 uM measured after 18 hrs by western blot analysis; type: functional, cell-based
[9] = biological target: T1, Protein cereblon/E3 ubiquitin-protein ligase XIAP (Homo sapiens); assay: PROTAC activity at CRBN/XIAP in human MCF7 cells assessed as induction of XIAP degradation at 1 uM measured after 6 hrs in presence of proteasome inhibitor, MG132 by western blot analysis; type: cell-based
MDA-MB-157 = assay: Inhibition of TNFalpha-induced cell migration in human MDA-MB-157 cells at 0.1 uM measured after 24 hrs in presence of TNFalpha by transwell assay; type: functional, cell-based
[10] = biological target: T3, Protein cereblon-IAP (Homo sapiens) (UniProt P98170+Q13489+Q13490+Q96SW2); assay: PROTAC activity at CRBN/IAP in human MCF7 cells assessed as inhibition of TNFalpha-induced NFkappaB activation by measuring decrease in p38 phosphorylation at 0.1 uM pretreated for 2 hrs followed by stimulation with TNF-alpha for 3 mins by western blot analysis; type: cell-based; conditions: time 123.0 min
T3 sequence (P98170 whole entry, looked up): as the sequence (P98170 whole entry, looked up) above
T3 sequence (Q13489 whole entry, looked up): as the sequence (Q13489 whole entry, looked up) above
T3 sequence (Q13490 whole entry, looked up): as the sequence (Q13490 whole entry) above
T3 sequence (Q96SW2 whole entry, looked up): as the sequence (Q96SW2 whole entry, looked up) above

[11] = biological target: Baculoviral IAP repeat-containing protein 2 (Homo sapiens) (UniProt Q13490); assay: Induction of cIAP1 degradation in human MCF7 cells at 0.1 uM measured within 1 hr by western blot analysis; type: cell-based
MCF7 [12] = assay: Induction of apoptosis in human MCF7 cells assessed as increase in caspase 3/7 activity at 0.01 to 1 uM measured after 18 hrs by Caspase-Glo reagent based luminescence analysis; type: functional, cell-based; conditions: dose 0.01-1 µM
[13] = biological target: Baculoviral IAP repeat-containing protein 2 (Homo sapiens) (UniProt Q13490); assay: Induction of cIAP1 degradation in human MCF7 cells at 0.1 uM measured after 18 hrs by western blot analysis; type: cell-based
[14] = biological target: T3, Protein cereblon-IAP (Homo sapiens); assay: PROTAC activity at CRBN/IAP in human MCF7 cells assessed as inhibition of TNFalpha-induced NFkappaB activation by measuring decrease in IKKalpha/beta phosphorylation at 0.1 uM pretreated for 2 hrs followed by stimulation with TNF-alpha for 3 mins by western blot analysis; type: cell-based; conditions: time 123.0 min
[15] = biological target: Baculoviral IAP repeat-containing protein 3 (Homo sapiens) (UniProt Q13489); assay: Induction of […] degradation in human MCF7 cells transfected with CRBN siRNA at 0.01 to 1 uM measured after 18 hrs by western blot analysis; type: cell-based; conditions: dose 0.01-1 µM
Sequence of Baculoviral IAP repeat-containing protein 3 (Homo sapiens) (Q13489 whole entry): as the sequence (Q13489 whole entry, looked up) above

MCF7 [16] = assay: Induction of apoptosis in human MCF7 cells assessed as increase in PARP cleavage at 1 uM measured after 6 hrs in presence of TNF-alpha by western blot analysis; type: functional, cell-based
MCF7 [17] = assay: Induction of apoptosis in human MCF7 cells assessed as increase in caspase-7 cleavage at 1 uM measured after 6 hrs in presence of TNF-alpha by western blot analysis; type: functional, cell-based
[18] = biological target: Baculoviral IAP repeat-containing protein 2 (Homo sapiens) (UniProt Q13490); assay: Induction of cIAP1 degradation in human MCF7 cells at 1 uM measured after 18 hrs by western blot analysis; type: cell-based
[19] = biological target: T2, Protein cereblon/Baculoviral IAP repeat-containing protein 3 (Homo sapiens); assay: PROTAC activity at CRBN/cIAP2 in human MCF7 cells assessed as induction of cIAP2 degradation at 0.1 to 10 uM measured after 18 hrs by western blot analysis; type: cell-based; conditions: dose 0.1-10 µM
[20] = biological target: T3, Protein cereblon-IAP (Homo sapiens); assay: PROTAC activity at CRBN/IAP in human MCF7 cells assessed as inhibition of TNFalpha-induced NFkappaB activation by measuring decrease in p65 phosphorylation at 0.1 uM pretreated for 2 hrs followed by stimulation with TNF-alpha for 3 mins by western blot analysis; type: cell-based; conditions: time 123.0 min
MCF7 [21] = assay: Inhibition of TNFalpha-induced cytokine secretion in human MCF7 cells assessed as decrease in TNFalpha level at 0.1 uM measured after 4 hrs by ELISA; type: functional, cell-based
[22] = biological target: E3 ubiquitin-protein ligase XIAP (Homo sapiens) (UniProt P98170); assay: Induction of XIAP degradation in human MCF7 cells transfected with CRBN siRNA at 0.01 to 1 uM measured after 18 hrs by western blot analysis; type: cell-based; conditions: dose 0.01-1 µM
Sequence of E3 ubiquitin-protein ligase XIAP (Homo sapiens) (P98170 whole entry): as the sequence (P98170 whole entry, looked up) above

MCF7 [23] = assay: Induction of apoptosis in human MCF7 cells assessed as increase in PARP cleavage at 0.1 uM measured after 18 hrs by western blot analysis; type: functional, cell-based
[24] = biological target: T2, Protein cereblon/Baculoviral IAP repeat-containing protein 3 (Homo sapiens); assay: PROTAC activity at CRBN/cIAP2 in human MCF7 cells assessed as induction of cIAP2 degradation at 0.1 uM measured within 1 hr by western blot analysis; type: cell-based
MCF7 [25] = assay: Inhibition of TNFalpha-induced cytokine mRNA expression in human MCF7 cells assessed as decrease in IL-6 mRNA level by quantitative real-time PCR analysis; type: functional, cell-based
SK-OV-3 = assay: Cytotoxicity against human SK-OV-3 cells assessed as inhibition of cell growth measured after 72 hrs by CellTiter-Glo luminescent assay; type: functional, cell-based
MCF7 [26] = assay: Inhibition of TNFalpha-induced vimentin protein expression in human MCF7 cells by western blot analysis; type: functional, cell-based
MCF7 [27] = assay: Cytotoxicity against human MCF7 cells assessed as inhibition of cell growth measured after 72 hrs by CellTiter-Glo luminescent assay; type: functional
[28] = biological target: Baculoviral IAP repeat-containing protein 2 (Homo sapiens) (UniProt Q13490); assay: Induction of cIAP1 degradation in human MCF7 cells assessed as protein abundance at 1 uM measured after 4 hrs by TMT-labeling based LC-MS/MS analysis; type: cell-based
[29] = biological target: Protein cereblon/Baculoviral IAP repeat-containing protein 2 (Homo sapiens) (UniProt Q13490+Q96SW2); assay: Binding affinity to CRBN/cIAP1 in human HEK293T cells assessed as ternary complex formation at 1 uM measured after 6 hrs by immunoprecipitation analysis; type: cell-based
Sequence of Protein cereblon/Baculoviral IAP repeat-containing protein 2 (Homo sapiens) (Q13490 whole entry, looked up): as the sequence (Q13490 whole entry) above
Sequence of Protein cereblon/Baculoviral IAP repeat-containing protein 2 (Homo sapiens) (Q96SW2 whole entry, looked up): as the sequence (Q96SW2 whole entry, looked up) above

[30] = biological target: T2, Protein cereblon/Baculoviral IAP repeat-containing protein 3 (Homo sapiens); assay: PROTAC activity at CRBN/cIAP2 in human MCF7 cells assessed as induction of cIAP2 degradation at 1 uM measured after 6 hrs in presence of proteasome inhibitor, MG132 by western blot analysis; type: cell-based

Sequence of Protein cereblon (Homo sapiens) (Q96SW2 whole entry): as the sequence (Q96SW2 whole entry, looked up) above

CN[C@@H](C)C(=O)N[C@H](C(=O)N1Cc2cc(OCCCCCCCCNC(=O)C3CN(c4ccc5c(c4)C(=O)N(C4CCC(=O)NC4=O)C5=O)C3)ccc2C[C@H]1C(=O)N[C@@H]1CCCc2ccccc21)C(C)(C)C (stereo partly drawn)
Activity [1]: inactive
inhibition (MDA-MB-231): Active
Activity [2]: 99%
Activity [3]: Active
Activity [4]: 97%
inhibition (MCF7 [5]): Active
Activity [6]: Active
Activity [7]: inactive
Activity (MCF7 [8]): Active
Activity [9]: inactive
inhibition (MDA-MB-157): Active
Activity [10]: Active
Activity [11]: > 90%
Activity (MCF7 [12]): Active
Activity [13]: 87%
Activity [14]: Active
Activity [15]: inactive
Activity (MCF7 [16]): Active
Activity (MCF7 [17]): Active
Activity [18]: 90%
Activity [19]: Active
Activity [20]: Active
inhibition (MCF7 [21]): Active
Activity [22]: inactive
Activity (MCF7 [23]): Active
Activity [24]: > 90%
inhibition (MCF7 [25]): Active
Activity (SK-OV-3): Active
inhibition (MCF7 [26]): Active
GI50 (MCF7 [27]): 396 nM
fold change (FC) [28]: > 2
Activity [29]: inactive
Activity [30]: inactive
